Results from US20250136568A1, “FUSED HETEROCYCLIC COMPOUNDS AS PI3KALPHA INHIBITORS” (Nanjing Zenshine Pharmaceuticals Co., Ltd., priority 2021, published 2025).
Where two headings read alike, the source gives them in different places.

Tests used:
Assay type in all cases: cell-based
[1] = system: PI3Kα H1047R mutation cell line MDA-MB-453; assay: Cell Proliferation IC50 Assay (CellTiter-Glo), MDA-MB-453; conditions: read-out: IC50 (μM) MDA-MB-453
Excerpt: PI3Kα H1047R mutation cell line T-47D and MDA-MB-453, E545K mutation cell line MDA-MB-361 and PI3Kα wide type cell line SK-BR-3 were purchased from Cobioer Biotech (cat. no CBP60397, CBP60386, CBP60383 and CBP60413 respectively). The CellTiter-Glo Direct Cell Proliferation Assay Kit was purchased from Prornega (cat. No. G7573)
For cell proliferation assay in each cell line: • a. Prepare complete medium (R PMI 1640, DMEM or McCoys): Add FBS and appropriate additives according to the information sheet provided by the vendor. Mix gently. • b. Prepare single cell suspension and count the cell numbers and adjust cells to appropriate density. • c. Add 80 μL of cell suspension to 96-well opaque-walled clear bottom plates according to the planned plate layout and place the plates in the CO2 incubator overnight. • d. Prepare intermediate plate: 10 μl of diluted test compounds or staurosporine solution (200×) is added to a 96 deep well plate. Then 390 μl of culture medium without FBS is added to the respective wells. • e. Transfer 20 μL of the solutions from the above intermediate plate to the wells of the plate prepared containing 80 μL of the culture medium and cells. The total dilution is 200 folds. • f. The cells were then incubated at 5% CO2, 37° C. for 72 hours. • g. Equilibrate the plate and its contents to room temperature for approximately 30 minutes. • h. Add 100 μL of CellTiter-Glo reagent to the assay plate • i. Mix contents for 10 minutes on an orbital shaker to induce cell lysis. • j. Allow the plate to incubate at room temperature for 10 minutes to stabilize luminescent signal, • k. Paste the clear bottom with white back seal and record luminescence with Varioskan LUX plate reader.
Inhibition % and IC50 value were calculated by the formula described below: […]

[2] = system: PI3Kα wide type cell line SK-BR-3; assay: Cell Proliferation IC50 Assay (CellTiter-Glo), SK-BR-3; conditions: SK-BR-3 (PI3Kα wild type), 72 hours, CellTiter-Glo, read-out: IC50 (μM) SK-BR-3
How it was run: (§1)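 Read-out was CellTiter-Glo luminescence after 72 h of compound exposure at 37 °C, 5% CO2. Cells had been plated overnight in complete medium before the compound was added at a 200-fold final dilution. IC50 was derived from percent inhibition.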

[3] = system: PI3Kα H1047R mutation cell line T-47D; assay: Cell Proliferation IC50 Assay (CellTiter-Glo), T-47D; conditions: T47D (H1047R), 72 hours, CellTiter-Glo, read-out: IC50 (μM) T47D
How it was run: as §1

[4] = Homo sapiens, MDA-MB-453 (H1047R), 72 hours, CellTiter-Glo

SMILES | IC50 [1, 4] [µM] | IC50 ([2]; Homo sapiens) [µM] | IC50 ([3]; Homo sapiens, T47D, 72 h) [µM] | also measured
C[C@H](Nc1ccccc1C(=O)O)c1cc(Cl)cc2c(=O)cc(-c3ccc4nn(C)cc4c3)oc12 (single isomer, unassigned) [Example 98A] | – | – | – | IC50 ([1]; MDA-MB-453 (H1047R), 72 hours, CellTiter-Glo): 0.09 µM; IC50 [2]: > 10 µM; IC50 [3]: 0.038 µM
Cc1cc(C(C)Nc2ccccc2C(=O)O)c2oc(-c3ccccc3)cc(=O)c2c1 (stereo not drawn) [Example 1, 2-((1-(6-methyl-4-oxo-2-phenyl-4H-chromen-8-yl)ethyl)amino)benzoic acid] | 0.7 | > 10 | 0.33 | –
Cc1ccc(-c2cc(=O)c3cc(C)cc(C(C)Nc4ccccc4C(=O)O)c3o2)cc1 (stereo not drawn) [Example 2, 2-((1-(6-methyl-4-oxo-2-(p-tolyl)-4H-chromen-8-yl)ethyl)amino)benzoic acid] | 0.39 | > 10 | 0.16 | –
Cc1cc(C(C)Nc2ccccc2C(=O)O)c2oc(-c3ccc(Cl)cc3)cc(=O)c2c1 (stereo not drawn) [Example 3, 2-((1-(2-(4-chlorophenyl)-6-methyl-4-oxo-4H-chromen-8-yl)ethyl)amino)benzoic acid] | 0.56 | > 10 | 0.75 | –
Cc1cc(C(C)Nc2ccccc2C(=O)O)c2oc(-c3ccc4c(c3)OCO4)cc(=O)c2c1 (stereo not drawn) [Example 4, 2-((1-(2-(benzo[d][1,3]dioxol-5-yl)-6-methyl-4-oxo-4H-chromen-8-yl)ethyl)amino)benzoic acid] | 0.75 | > 10 | 0.56 | –
Cc1cc(C(C)Nc2ccccc2C(=O)O)c2oc(-c3ccc4c(c3)CN(C)C4=O)cc(=O)c2c1 (stereo not drawn) [Example 6, 2-((1-(6-methyl-2-(2-methyl-1-oxoisoindolin-5-yl)-4-oxo-4H-chromen-8-yl)ethyl)amino)benzoic acid] | 0.29 | > 10 | 0.23 | –
Cc1cc(C(C)Nc2ccccc2C(=O)O)c2oc(-c3cnn(C)c3)cc(=O)c2c1 (stereo not drawn) [Example 10, 2-((1-(6-methyl-2-(1-methyl-1H-pyrazol-4-yl)-4-oxo-4H-chromen-8-yl)ethyl)amino)benzoic acid] | 2.44 | > 10 | 0.86 | –
Cc1cc(C(C)Nc2ccccc2C(=O)O)c2oc(-c3ccc4nn(C)c(C)c4c3)cc(=O)c2c1 (stereo not drawn) [Example 111, 2-((1-(2-(2,3-dimethyl-2H-indazol-5-yl)-6-methyl-4-oxo-4H-chromen-8-yl)ethyl)amino)benzoic acid] | 0.87 | > 10 | – | –
Cc1cc([C@@H](C)Nc2ccccc2C(=O)O)c2oc(-c3ccc(N4CCN(C5COC5)CC4)cc3)c(C)c(=O)c2c1 [Example 118, (R)-2-((1-(3,6-dimethyl-2-(4-(4-(oxetan-3-yl)piperazin-1-yl)phenyl)-4-oxo-4H-chromen-8-yl)ethyl)amino)benzoic acid] | – | 7.52 | – | IC50 ([1]; Homo sapiens, MDA-MB-453, 72 h): 0.14 µM
Cc1cc(C(C)Nc2ccccc2C(=O)O)c2oc(-c3ccc4c(=O)n(C)ccc4c3)cc(=O)c2c1 (stereo not drawn) [Example 120, 2-((1-(6-methyl-2-(2-methyl-1-oxo-1,2-dihydroisoquinolin-6-yl)-4-oxo-4H-chromen-8-yl)ethyl)amino)benzoic acid] | 1.18 | > 10 | – | –
Cc1cc(C(C)Nc2ccccc2C(=O)O)c2oc(-c3ccc4c(=O)n(C)ncc4c3)cc(=O)c2c1 (stereo not drawn) [Example 122, 2-((1-(6-methyl-2-(2-methyl-1-oxo-1,2-dihydrophthalazin-6-yl)-4-oxo-4H-chromen-8-yl)ethyl)amino)benzoic acid] | 0.56 | > 10 | – | –
Cc1cc(C(C)Nc2ccccc2C(=O)O)c2oc(C3CCN(c4ccccn4)CC3)c(C)c(=O)c2c1 (stereo not drawn) [Example 124, 2-((1-(3,6-dimethyl-4-oxo-2-(1-(pyridin-2-yl)piperidin-4-yl)-4H-chromen-8-yl)ethyl)amino)benzoic acid] | – | > 10 | – | IC50 ([1]; Homo sapiens, MDA-MB-453, 72 h): 0.5 µM
Cc1cc(C(C)Nc2ccccc2C(=O)O)c2oc(C3CCN(c4cccnc4)CC3)c(C)c(=O)c2c1 (stereo not drawn) [Example 125, 2-((1-(3,6-dimethyl-4-oxo-2-(1-(pyridin-3-yl)piperidin-4-yl)-4H-chromen-8-yl)ethyl)amino)benzoic acid] | 0.4 | > 10 | – | –
Cc1cc(C(C)Nc2ccccc2C(=O)O)c2oc(-c3ccc(S(C)(=O)=O)cc3)c(C)c(=O)c2c1 (stereo not drawn) [Example 127, 2-((1-(3,6-dimethyl-2-(4-(methylsulfonyl)phenyl)-4-oxo-4H-chromen-8-yl)ethyl)amino)benzoic acid] | > 10 | > 10 | – | –
Cc1cc(C(C)Nc2ccccc2C(=O)O)c2oc(C3CCC(c4ccccc4)CC3)c(C)c(=O)c2c1 (stereo not drawn) [Example 130, 2-((1-(3,6-dimethyl-4-oxo-2-(4-phenylcyclohexyl)-411-chromen-8-yl)ethyl)amino)benzoic acid] | > 10 | > 10 | – | –

Continued, in another order:

IC50 [1, 4] [µM] | IC50 ([2]; Homo sapiens) [µM] | IC50 ([3]; Homo sapiens, T47D, 72 h) [µM] | SMILES | also measured
> 10 | > 10 | > 10 | Cc1cc([C@H](C)Nc2ccccc2C(=O)O)c2oc(-c3ccc4c(c3)CN(C)C4=O)c(C)c(=O)c2c1 (single isomer, unassigned) [Example 20A] | –
0.07 | > 10 | 0.048 | Cc1cc([C@@H](C)Nc2ccccc2C(=O)O)c2oc(-c3ccc4c(c3)CN(C)C4=O)c(C)c(=O)c2c1 (single isomer, unassigned) [Example 20B] | –
0.12 | > 10 | 0.09 | Cc1cc([C@@H](C)Nc2ccccc2C(=O)O)c2oc(-c3ccc(N4CCOCC4)cc3)c(C)c(=O)c2c1 (single isomer, unassigned) [Example 53A] | –
> 10 | > 10 | > 10 | CC(=O)N1CCN(c2ccc(-c3oc4c([C@H](C)Nc5ccccc5C(=O)O)cc(C)cc4c(=O)c3C)cc2)CC1 (single isomer, unassigned) [Example 123B] | –
0.09 | > 10 | – | Cc1cc(C(C)Nc2ccccc2C(=O)O)c2oc(-c3ccc(N4CCN(C)CC4)cc3)c(C)c(=O)c2c1 (stereo not drawn) [Example 90, 2-((1-(3,6-dimethyl-2-(4-(4-methylpiperazin-1-yl)phenyl)-4-oxo-4H-chromen-8-yl)ethyl)amino)benzoic acid] | –
2.46 | > 10 | – | Cc1cc(C(C)Nc2ccccc2C(=O)O)c2oc(C3CCN(c4ccncc4)CC3)c(C)c(=O)c2c1 (stereo not drawn) [Example 126, 2-((1-(3,6-dimethyl-4-oxo-2-(1-(pyridin-4-yl)piperidin-4-yl)-4H-chromen-8-yl)ethyl)amino)benzoic acid] | –
0.16 | > 10 | – | Cc1cc(C(C)Nc2ccccc2C(=O)O)c2oc(-c3ccc(CN4CCOCC4)cc3)c(C)c(=O)c2c1 (stereo not drawn) [Example 128, 2-((1-(3,6-dimethyl-2-(4-(morpholinomethyl)phenyl)-4-oxo-4H-chromen-8-yl)ethyl)amino)benzoic acid] | –
0.26 | > 10 | – | Cc1cc(C(C)Nc2ccccc2C(=O)O)c2oc(-c3ccc(C(=O)N4CCOCC4)cc3)c(C)c(=O)c2c1 (stereo not drawn) [Example 129, 2-((1-(3,6-dimethyl-2-(4-(morpholine-4-carbonyl)phenyl)-4-oxo-4H-chromen-8-yl)ethyl)amino)benzoic acid] | –
0.27 | > 10 | – | Cc1cc(C(C)Nc2ccccc2C(=O)O)c2oc(-c3ccc(N4CCS(=O)(=O)CC4)cc3)c(C)c(=O)c2c1 (stereo not drawn) [Example 132, 2-((1-(2-(4-(1,1-dioxidothiomorpholino)phenyl)-3,6-dimethyl-4-oxo-4H-chromen-8-yl)ethyl)amino)benzoic acid] | –
1.18 | > 10 | – | Cc1cc([C@@H](C)Nc2ccccc2C(=O)O)c2oc(-c3ccnc(N4CCOCC4)c3)c(C)c(=O)c2c1 [Example 133, (R)-2-((1-(3,6-dimethyl-2-(2-morpholinopyridin-4-yl)-4-oxo-411-chromen-8-yl)ethyl)amino)benzoic acid] | –
0.56 | > 10 | – | Cc1cc([C@@H](C)Nc2ccccc2C(=O)O)c2oc(-c3ccnc(C(=O)N(C)C)c3)c(C)c(=O)c2c1 [Example 134, (R)-2-((1-(2-(2-(dimethylcarbamoyl)pyridin-4-yl)-3,6-dimethyl-4-oxo-4H-chromen-8-yl)ethyl)amino)benzoic acid] | –
